Results reported in patent US9233989B2, “Sila analogs of oxazolidinone derivatives and synthesis thereof” (Council of Scientific & Industrial Research, priority 2011, dated 2016).
Converted amounts (≈) assume the structure as drawn.

Legend:
[1] = system: Mycobacterium tuberculosis H37Rv; test: Anti-TB activity, colorimetric resazurin microtiter assay; format: cell-based; details: Mycobacterium tuberculosis, H37RV, read-out: MIC, Minimum Inhibitory Concentration (90%)
[2] = system: S.aureus ATCC Newman 25904; test: MIC by microbroth dilution method; format: cell-based
[3] = system: E.faecalis ATCC 51299(VRE&HLAR); test: MIC by microbroth dilution method; format: cell-based
[4] = system: MRSA ATCC BAA 39; test: MIC by microbroth dilution method; format: cell-based, S. aureus
[5] = system: MRSA DB 00026; test: MIC by microbroth dilution method; format: cell-based, S. aureus
[6] = system: MRSA 562; test: MIC by microbroth dilution method; format: cell-based, S. aureus
[7] = system: E.faecium 06076 VRE; test: MIC by microbroth dilution method; format: cell-based
[8] = system: MRSE ATCC 35983; test: MIC by microbroth dilution method; format: cell-based, S. epidermidis
[9] = system: E.faecium 6A VRE; test: MIC by microbroth dilution method; format: cell-based
[10] = system: S.aureus ATCC 49775 PVL + ve; format: cell-based
[11] = system: MRSE ATCC 35984; test: MIC by microbroth dilution method; format: cell-based, S. epidermidis
[12] = system: S.aureus ATCC 13709 Smith; test: MIC by microbroth dilution method; format: cell-based
[13] = system: S.epidermidis ATCC 12228; test: MIC by microbroth dilution method; format: cell-based
[14] = system: S.epidermis St 358; test: MIC by microbroth dilution method; format: cell-based, S. epidermidis
[15] = system: E.faecium ATCC 35667; test: MIC by microbroth dilution method; format: cell-based
[16] = system: S.aureus ATCC 29213; test: MIC by microbroth dilution method; format: cell-based
[17] = system: S.aureus 13709 LNZ mutant; format: cell-based
[18] = system: E.faecium ATCC 49224; test: MIC by microbroth dilution method; format: cell-based
[19] = system: S.aureus ATCC 700699 Mu50; test: MIC by microbroth dilution method; format: cell-based
[20] = system: E.faecium 134 VRE; test: MIC by microbroth dilution method; format: cell-based
[21] = system: S.epidermidis ATCC 14990; test: MIC by microbroth dilution method; format: cell-based
[22] = system: S.aureus2 (PVL + ve); format: cell-based, S. aureus
[23] = system: E.faecium ATCC 19434; test: MIC by microbroth dilution method; format: cell-based
[24] = system: E.faecium ATCC 3567; test: MIC by microbroth dilution method; format: cell-based
[25] = system: S.aureus DB00026; test: MIC by microbroth dilution method; format: cell-based
[26] = system: MRSA 252 BAA 1720; test: MIC by microbroth dilution method; format: cell-based, S. aureus
[27] = system: MRSA 0-2657; test: MIC by microbroth dilution method; format: cell-based, S. aureus
[28] = system: E.faecalis ATCC 19433; test: MIC by microbroth dilution method; format: cell-based
[29] = system: E.coli 7632; test: MIC by microbroth dilution method; format: cell-based
[30] = system: MRSA ATCC 43300; test: MIC by microbroth dilution method; format: cell-based, S. aureus
[31] = system: E.faecalis SP 346 VRE; test: MIC by microbroth dilution method; format: cell-based
[32] = system: E.faecalis ATCC 29212; test: MIC by microbroth dilution method; format: cell-based

Row | Structure (SMILES) | MIC [2] | MIC [3] | MIC [4] | MIC [5] | MIC [6] | MIC [7] | MIC [8] | MIC [9] | MIC [10] | MIC [11] | MIC [12] | MIC [13] | MIC [14] | MIC [15] | MIC [16] | MIC [17] | MIC [18] | MIC [19] | MIC [20] | MIC [21] | also measured
1 | C[Si]1(c2ccccc2)CCN(c2c(F)cc(N3C[C@H](CO)OC3=O)cc2F)CC1 [NDS-10071, (R)-3-(3,5-difluoro-4-(4-methyl-4-phenyl-1,4-azasilinan-1-yl)phenyl)-5-(hydroxylmethyl)oxazolidin-2-one] | 16 mg/L (≈ 38.2 µM) | 32 mg/L (≈ 76.5 µM) | 32 mg/L (≈ 76.5 µM) | 16 mg/L (≈ 38.2 µM) | 32 mg/L (≈ 76.5 µM) | 32 mg/L (≈ 76.5 µM) | 16 mg/L (≈ 38.2 µM) | 32 mg/L (≈ 76.5 µM) | 16(ppt) | 16 mg/L (≈ 38.2 µM) | 32 mg/L (≈ 76.5 µM) | > 32 mg/L | 16 mg/L (≈ 38.2 µM) | 16 mg/L (≈ 38.2 µM) | > 32 mg/L | 16(ppt) | 32 mg/L (≈ 76.5 µM) | 32 mg/L (≈ 76.5 µM) | 8 mg/L (≈ 19.1 µM) | 16 mg/L (≈ 38.2 µM) | MIC [1]: 50 mg/L (≈ 119 µM); MIC [22]: 32 mg/L (≈ 76.5 µM); melting point: 105 to 107 °C; MIC [23]: 32 mg/L (≈ 76.5 µM); MIC [24]: > 32 mg/L; MIC [25]: 32 mg/L (≈ 76.5 µM); MIC [26]: 32 mg/L (≈ 76.5 µM); MIC [27]: 8(ppt); MIC [28]: 16 mg/L (≈ 38.2 µM); MIC [29]: 16 mg/L (≈ 38.2 µM); MIC [30]: > 32 mg/L; MIC [31]: 16(ppt); MIC [32]: 8 mg/L (≈ 19.1 µM)
2 | C[Si]1(C)CCN(c2c(F)cc(N3C[C@H](CO)OC3=O)cc2F)CC1 [NDS-10052, (R)-3-(4-(4,4-dimethyl-1,4-azasilinan-1-yl)-3,5-difluorophenyl)-5-(hydroxymethyl)oxazolidin-2-one] | > 32 mg/L | > 32 mg/L | 16 mg/L (≈ 44.9 µM) | > 32 mg/L | 16 mg/L (≈ 44.9 µM) | > 32 mg/L | > 32 mg/L | 8 mg/L (≈ 22.4 µM) | > 32 mg/L | 32 mg/L (≈ 89.8 µM) | > 32 mg/L | > 32 mg/L | > 32 mg/L | 32 mg/L (≈ 89.8 µM) | > 32 mg/L | > 32 mg/L | 8 mg/L (≈ 22.4 µM) | 8 mg/L (≈ 22.4 µM) | > 32 mg/L | 16 mg/L (≈ 44.9 µM) | MIC [22]: > 32 mg/L; melting point: 126 to 128 °C; MIC [23]: 16 mg/L (≈ 44.9 µM); MIC [24]: 32 mg/L (≈ 89.8 µM); MIC [25]: 32 mg/L (≈ 89.8 µM); MIC [26]: > 32 mg/L; MIC [27]: > 32 mg/L; MIC [28]: > 32 mg/L; MIC [29]: > 32 mg/L; MIC [30]: > 32 mg/L; MIC [31]: > 32 mg/L; MIC [32]: > 32 mg/L
3 | COC(=O)NC[C@H]1CN(c2cc(F)c(N3CC[Si](C)(C)CC3)c(F)c2)C(=O)O1 [NDS-10053, (S)-methyl(3-(4-(4,4-dimethyl-1,4-azasilinan-1-yl)-3,5-difluorophenyl)-2-oxooxazolidin-5-yl)methylcarbamate] | 16 mg/L (≈ 38.7 µM) | 16 mg/L (≈ 38.7 µM) | 8 mg/L (≈ 19.3 µM) | 32 mg/L (≈ 77.4 µM) | 16 mg/L (≈ 38.7 µM) | > 32 mg/L | 32 mg/L (≈ 77.4 µM) | 4 mg/L (≈ 9.67 µM) | 16 mg/L (≈ 38.7 µM) | 8 mg/L (≈ 19.3 µM) | 16 mg/L (≈ 38.7 µM) | 8 mg/L (≈ 19.3 µM) | 16 mg/L (≈ 38.7 µM) | 8 mg/L (≈ 19.3 µM) | 16 mg/L (≈ 38.7 µM) | > 32 mg/L | 32 mg/L (≈ 77.4 µM) | 8 mg/L (≈ 19.3 µM) | 32 mg/L (≈ 77.4 µM) | 8 mg/L (≈ 19.3 µM) | MIC [1]: 50 mg/L (≈ 121 µM); MIC [22]: 16 mg/L (≈ 38.7 µM); MIC [23]: 16 mg/L (≈ 38.7 µM); MIC [24]: 16 mg/L (≈ 38.7 µM); MIC [25]: 16 mg/L (≈ 38.7 µM); MIC [26]: 8 mg/L (≈ 19.3 µM); MIC [27]: 8 mg/L (≈ 19.3 µM); MIC [28]: 32 mg/L (≈ 77.4 µM); MIC [29]: > 32 mg/L; MIC [30]: 16 mg/L (≈ 38.7 µM); MIC [31]: 32 mg/L (≈ 77.4 µM); MIC [32]: 32 mg/L (≈ 77.4 µM)
